In the NIST ThermoML archive (doi:10.1016/j.jct.2017.01.016):

Test: xn = mol fraction of the nth substance listed
Conditions: 101 kPa, Liquid; for viscosity: Capillary tube (Ostwald / Ubbelohde) method; for speed of sound: Frequency=3 MHz, Linear variable-path acoustic interferometer

C1COCCO1 [1,4-dioxane] + Cc1ccccc1
Conditions	speed of sound [m/s]	viscosity [mPa·s]
293.15 K, x1 = 0.0688	1330.1	0.6346
293.15 K, x1 = 0.1373	1331.5	0.6812
293.15 K, x1 = 0.2112	1333	0.732
293.15 K, x1 = 0.2858	1334.8	0.784
293.15 K, x1 = 0.3552	1336.5	0.8327
293.15 K, x1 = 0.4361	1338.6	0.8901
293.15 K, x1 = 0.5064	1340.7	0.9405
293.15 K, x1 = 0.5819	1343.2	0.9951
293.15 K, x1 = 0.6506	1346	1.045
293.15 K, x1 = 0.7212	1349.1	1.097
293.15 K, x1 = 0.7903	1352.5	1.148
293.15 K, x1 = 0.864	1356.9	1.203
293.15 K, x1 = 0.9336	1361.8	1.256
293.15 K, x1 = 1	1367.2	1.306
298.15 K, x1 = 0.0688	1308.4	0.5952
298.15 K, x1 = 0.1373	1309.5	0.6366
298.15 K, x1 = 0.2112	1310.9	0.682
298.15 K, x1 = 0.2858	1312.4	0.7282
298.15 K, x1 = 0.3552	1313.9	0.7716
298.15 K, x1 = 0.4361	1315.9	0.8229
298.15 K, x1 = 0.5064	1317.9	0.8679
298.15 K, x1 = 0.5819	1320.4	0.9166
298.15 K, x1 = 0.6506	1323.2	0.9613
298.15 K, x1 = 0.7212	1326.3	1.008
298.15 K, x1 = 0.7903	1329.8	1.053
298.15 K, x1 = 0.864	1334.2	1.103
298.15 K, x1 = 0.9336	1339.1	1.15
298.15 K, x1 = 1	1344.7	1.195
303.15 K, x1 = 0.0688	1286.3	0.56
303.15 K, x1 = 0.1373	1287.2	0.597
303.15 K, x1 = 0.2112	1288.4	0.6373
303.15 K, x1 = 0.2858	1289.7	0.6785
303.15 K, x1 = 0.3552	1291.2	0.7173
303.15 K, x1 = 0.4361	1293.2	0.7631
303.15 K, x1 = 0.5064	1295.2	0.8033
303.15 K, x1 = 0.5819	1297.8	0.8469
303.15 K, x1 = 0.6506	1300.6	0.887
303.15 K, x1 = 0.7212	1303.9	0.9286
303.15 K, x1 = 0.7903	1307.5	0.9696
303.15 K, x1 = 0.864	1312.2	1.014
303.15 K, x1 = 0.9336	1317.3	1.056
303.15 K, x1 = 1	1323.1	1.096
308.15 K, x1 = 0.0688	1264.8	0.5284
308.15 K, x1 = 0.1373	1265.5	0.5619
308.15 K, x1 = 0.2112	1266.5	0.5984
308.15 K, x1 = 0.2858	1267.7	0.6357
308.15 K, x1 = 0.3552	1269	0.6709
308.15 K, x1 = 0.4361	1270.9	0.7124
308.15 K, x1 = 0.5064	1272.9	0.7489
308.15 K, x1 = 0.5819	1275.4	0.7885
308.15 K, x1 = 0.6506	1278.2	0.8249
308.15 K, x1 = 0.7212	1281.6	0.8627
308.15 K, x1 = 0.7903	1285.3	0.8998
308.15 K, x1 = 0.864	1290.1	0.9399
308.15 K, x1 = 0.9336	1295.3	0.978
308.15 K, x1 = 1	1301.2	1.014
313.15 K, x1 = 0.0688	1242.8	0.4969
313.15 K, x1 = 0.1373	1243.4	0.5278
313.15 K, x1 = 0.2112	1244.3	0.5615
313.15 K, x1 = 0.2858	1245.4	0.596
313.15 K, x1 = 0.3552	1246.7	0.6284
313.15 K, x1 = 0.4361	1248.6	0.6666
313.15 K, x1 = 0.5064	1250.6	0.7003
313.15 K, x1 = 0.5819	1253.2	0.7368
313.15 K, x1 = 0.6506	1256	0.7702
313.15 K, x1 = 0.7212	1259.4	0.805
313.15 K, x1 = 0.7903	1263.3	0.8393
313.15 K, x1 = 0.864	1268.2	0.8762
313.15 K, x1 = 0.9336	1273.6	0.9114
313.15 K, x1 = 1	1279.7	0.945
318.15 K, x1 = 0.0688	1221	0.467
318.15 K, x1 = 0.1373	1221.5	0.4958
318.15 K, x1 = 0.2112	1222.3	0.5272
318.15 K, x1 = 0.2858	1223.3	0.5593
318.15 K, x1 = 0.3552	1224.6	0.5895
318.15 K, x1 = 0.4361	1226.5	0.6251
318.15 K, x1 = 0.5064	1228.6	0.6564
318.15 K, x1 = 0.5819	1231.2	0.6903
318.15 K, x1 = 0.6506	1234.1	0.7215
318.15 K, x1 = 0.7212	1237.6	0.7539
318.15 K, x1 = 0.7903	1241.6	0.7857
318.15 K, x1 = 0.864	1246.7	0.82
318.15 K, x1 = 0.9336	1252.3	0.8527
318.15 K, x1 = 1	1258.6	0.884

Cc1ccccc1C [1,2-dimethylbenzene] + C1COCCO1
Conditions	speed of sound [m/s]	viscosity [mPa·s]
293.15 K, x2 = 0	1367.7	0.8066
293.15 K, x2 = 0.0672	1361.7	0.8314
293.15 K, x2 = 0.1391	1355.5	0.8598
293.15 K, x2 = 0.2103	1350	0.8896
293.15 K, x2 = 0.2853	1345.3	0.9224
293.15 K, x2 = 0.3543	1341.7	0.9541
293.15 K, x2 = 0.4293	1338.8	0.9899
293.15 K, x2 = 0.5092	1336.9	1.03
293.15 K, x2 = 0.581	1336.5	1.067
293.15 K, x2 = 0.6518	1337.4	1.104
293.15 K, x2 = 0.7248	1339.8	1.144
293.15 K, x2 = 0.7888	1343.5	1.18
293.15 K, x2 = 0.8595	1349.3	1.221
293.15 K, x2 = 0.9298	1357.1	1.263
298.15 K, x2 = 0	1347.5	0.7576
298.15 K, x2 = 0.0672	1341.5	0.7791
298.15 K, x2 = 0.1391	1335.1	0.8033
298.15 K, x2 = 0.2103	1329.6	0.829
298.15 K, x2 = 0.2853	1324.8	0.8576
298.15 K, x2 = 0.3543	1321	0.8851
298.15 K, x2 = 0.4293	1317.9	0.9162
298.15 K, x2 = 0.5092	1315.9	0.9509
298.15 K, x2 = 0.581	1315.4	0.9833
298.15 K, x2 = 0.6518	1316.2	1.016
298.15 K, x2 = 0.7248	1318.3	1.052
298.15 K, x2 = 0.7888	1321.9	1.083
298.15 K, x2 = 0.8595	1327.4	1.12
298.15 K, x2 = 0.9298	1334.9	1.157
303.15 K, x2 = 0	1329.4	0.7132
303.15 K, x2 = 0.0672	1323	0.7321
303.15 K, x2 = 0.1391	1316.5	0.7527
303.15 K, x2 = 0.2103	1311	0.7747
303.15 K, x2 = 0.2853	1306	0.7992
303.15 K, x2 = 0.3543	1302	0.823
303.15 K, x2 = 0.4293	1298.6	0.8502
303.15 K, x2 = 0.5092	1296.3	0.8806
303.15 K, x2 = 0.581	1295.5	0.909
303.15 K, x2 = 0.6518	1296	0.9382
303.15 K, x2 = 0.7248	1298	0.9693
303.15 K, x2 = 0.7888	1301.3	0.9977
303.15 K, x2 = 0.8595	1306.5	1.03
303.15 K, x2 = 0.9298	1313.7	1.063
308.15 K, x2 = 0	1313.3	0.669
308.15 K, x2 = 0.0672	1306.3	0.6862
308.15 K, x2 = 0.1391	1299.9	0.7045
308.15 K, x2 = 0.2103	1293.9	0.724
308.15 K, x2 = 0.2853	1288.5	0.746
308.15 K, x2 = 0.3543	1284.3	0.7675
308.15 K, x2 = 0.4293	1280.4	0.792
308.15 K, x2 = 0.5092	1277.8	0.8194
308.15 K, x2 = 0.581	1276.7	0.8452
308.15 K, x2 = 0.6518	1276.8	0.8715
308.15 K, x2 = 0.7248	1278.4	0.8997
308.15 K, x2 = 0.7888	1281.2	0.9256
308.15 K, x2 = 0.8595	1285.9	0.9546
308.15 K, x2 = 0.9298	1292.5	0.9846
313.15 K, x2 = 0	1298.5	0.6315
313.15 K, x2 = 0.0672	1291	0.647
313.15 K, x2 = 0.1391	1284	0.6637
313.15 K, x2 = 0.2103	1277.8	0.6813
313.15 K, x2 = 0.2853	1272.1	0.7012
313.15 K, x2 = 0.3543	1267.6	0.7205
313.15 K, x2 = 0.4293	1263.5	0.7428
313.15 K, x2 = 0.5092	1260.5	0.7677
313.15 K, x2 = 0.581	1259	0.7912
313.15 K, x2 = 0.6518	1258.6	0.8152
313.15 K, x2 = 0.7248	1259.6	0.8408
313.15 K, x2 = 0.7888	1262	0.8642
313.15 K, x2 = 0.8595	1266	0.8906
313.15 K, x2 = 0.9298	1271.8	0.9176
318.15 K, x2 = 0	1285.2	0.5972
318.15 K, x2 = 0.0672	1277.2	0.6114
318.15 K, x2 = 0.1391	1269.7	0.6267
318.15 K, x2 = 0.2103	1263	0.6427
318.15 K, x2 = 0.2853	1256.9	0.661
318.15 K, x2 = 0.3543	1252.1	0.6786
318.15 K, x2 = 0.4293	1247.7	0.699
318.15 K, x2 = 0.5092	1244.1	0.7218
318.15 K, x2 = 0.581	1242.1	0.743
318.15 K, x2 = 0.6518	1241.3	0.7649
318.15 K, x2 = 0.7248	1241.7	0.7884
318.15 K, x2 = 0.7888	1243.4	0.8098
318.15 K, x2 = 0.8595	1246.6	0.834
318.15 K, x2 = 0.9298	1251.6	0.859
